Earlier results in US11744789B2, “Method for dyeing keratinous material, comprising the use of an organosilicon compound, a colored effect pigment and a sealing reagent III” (Henkel AG & Co. KGaA, priority 2019, dated 2023).

Conditions: for solubility in water: 25° C.

Structure (SMILES)	solubility in water (in words) (at 25° C.)	solubility in water
O=C(O)C1=NN(c2ccc(S(=O)(=O)O)cc2)C(=O)C1N=Nc1ccc(S(=O)(=O)O)cc1 (stereo not drawn) [Acid Yellow 23, 4,5-dihydro-5-oxo-1-(4-sulfophenyl)-4-((4-sulfophenyl)azo)-1H-pyrazole-3-carboxylic acid]	highly soluble in water	–
O=[N+]([O-])c1cc([N+](=O)[O-])c2ccc(S(=O)(=O)O)cc2c1O [Acid Yellow 9, 8-hydroxy-5,7-dinitro-2-naphthalenesulfonic acid]	–	above 40 g/L
O=S(=O)(O)c1ccc(N=Nc2c(O)ccc3ccccc23)cc1 [Acid Orange 7, 4-[(2-hydroxy-1-naphthyl)azo]benzene sulphonate]	–	more than 7 g/L
